Measured values as given in ChEMBL document CHEMBL4602719, “Discovery of Potent, Selective, and Orally Bioavailable Inhibitors of USP7 with In Vivo Antitumor Activity” (J Med Chem, 2020).

Columns and labels:
[1] = biological target: T1, Ubiquitin carboxyl-terminal hydrolase 1 (Homo sapiens, UniProt O94782); test: Inhibition of His6-tagged human USP1 expressed in insect Sf21 cells coexpressing untagged UAF1 assessed as cleavage of Ubiquitin-Rhodamine110-glycine to Ubiquitin and Rhodamine110-glycine using Ubiquitin-Rhodamine110-glycine as substrate by fluorescence based analysis
T1 sequence (O94782 whole entry): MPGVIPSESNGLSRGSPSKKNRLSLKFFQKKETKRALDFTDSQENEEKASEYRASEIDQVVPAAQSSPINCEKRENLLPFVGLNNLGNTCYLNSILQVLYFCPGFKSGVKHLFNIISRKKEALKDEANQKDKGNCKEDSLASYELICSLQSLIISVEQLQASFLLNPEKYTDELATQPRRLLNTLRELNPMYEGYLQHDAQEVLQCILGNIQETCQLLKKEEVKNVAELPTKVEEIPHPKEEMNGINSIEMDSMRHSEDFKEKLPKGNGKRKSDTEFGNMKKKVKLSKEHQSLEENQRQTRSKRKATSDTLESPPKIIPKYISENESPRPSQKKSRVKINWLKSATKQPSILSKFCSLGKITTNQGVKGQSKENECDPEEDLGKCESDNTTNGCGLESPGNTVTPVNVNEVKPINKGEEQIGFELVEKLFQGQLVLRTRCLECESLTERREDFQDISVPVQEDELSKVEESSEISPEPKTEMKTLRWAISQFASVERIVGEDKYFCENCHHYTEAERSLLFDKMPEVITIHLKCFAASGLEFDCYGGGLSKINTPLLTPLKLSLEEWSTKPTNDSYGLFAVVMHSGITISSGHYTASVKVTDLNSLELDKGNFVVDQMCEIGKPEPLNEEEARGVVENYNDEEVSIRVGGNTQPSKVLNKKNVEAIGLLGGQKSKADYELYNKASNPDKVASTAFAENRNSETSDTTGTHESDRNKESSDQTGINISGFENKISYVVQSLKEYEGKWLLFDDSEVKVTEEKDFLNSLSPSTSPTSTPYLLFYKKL

[2] = Clearance in Sprague-Dawley rat at 0.5 mg/kg, iv; type: ADME, organism-based; conditions: in vivo
[3] = AUC in Sprague-Dawley rat at 2 mg/kg, po; type: ADME, organism-based; conditions: in vivo
[4] = biological target: T2, Ubiquitin carboxyl-terminal hydrolase isozyme L3 (Homo sapiens, UniProt P15374); test: Inhibition of human GST-tagged UCHL3 expressed in Escherichia coli assessed as cleavage of Ubiquitin-Rhodamine110-glycine to Ubiquitin and Rhodamine110-glycine using Ubiquitin-Rhodamine110-glycine as substrate by fluorescence based analysis
T2 sequence (P15374 whole entry): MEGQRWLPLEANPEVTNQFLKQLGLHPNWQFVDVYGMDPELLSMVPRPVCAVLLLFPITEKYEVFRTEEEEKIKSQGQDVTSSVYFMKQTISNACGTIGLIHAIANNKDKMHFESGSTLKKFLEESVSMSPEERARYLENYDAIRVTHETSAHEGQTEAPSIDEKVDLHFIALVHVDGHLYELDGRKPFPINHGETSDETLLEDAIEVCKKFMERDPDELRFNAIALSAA

[5] = biological target: Ubiquitin carboxyl-terminal hydrolase 4 (Homo sapiens, UniProt Q13107); test: Inhibition of human 6His-tagged USP4 expressed in Escherichia coli assessed as cleavage of Ubiquitin-Rhodamine110-glycine to Ubiquitin and Rhodamine110-glycine using Ubiquitin-Rhodamine110-glycine as substrate by fluorescence based analysis
Sequence of Ubiquitin carboxyl-terminal hydrolase 4 (Q13107 whole entry, the tested form may be a part): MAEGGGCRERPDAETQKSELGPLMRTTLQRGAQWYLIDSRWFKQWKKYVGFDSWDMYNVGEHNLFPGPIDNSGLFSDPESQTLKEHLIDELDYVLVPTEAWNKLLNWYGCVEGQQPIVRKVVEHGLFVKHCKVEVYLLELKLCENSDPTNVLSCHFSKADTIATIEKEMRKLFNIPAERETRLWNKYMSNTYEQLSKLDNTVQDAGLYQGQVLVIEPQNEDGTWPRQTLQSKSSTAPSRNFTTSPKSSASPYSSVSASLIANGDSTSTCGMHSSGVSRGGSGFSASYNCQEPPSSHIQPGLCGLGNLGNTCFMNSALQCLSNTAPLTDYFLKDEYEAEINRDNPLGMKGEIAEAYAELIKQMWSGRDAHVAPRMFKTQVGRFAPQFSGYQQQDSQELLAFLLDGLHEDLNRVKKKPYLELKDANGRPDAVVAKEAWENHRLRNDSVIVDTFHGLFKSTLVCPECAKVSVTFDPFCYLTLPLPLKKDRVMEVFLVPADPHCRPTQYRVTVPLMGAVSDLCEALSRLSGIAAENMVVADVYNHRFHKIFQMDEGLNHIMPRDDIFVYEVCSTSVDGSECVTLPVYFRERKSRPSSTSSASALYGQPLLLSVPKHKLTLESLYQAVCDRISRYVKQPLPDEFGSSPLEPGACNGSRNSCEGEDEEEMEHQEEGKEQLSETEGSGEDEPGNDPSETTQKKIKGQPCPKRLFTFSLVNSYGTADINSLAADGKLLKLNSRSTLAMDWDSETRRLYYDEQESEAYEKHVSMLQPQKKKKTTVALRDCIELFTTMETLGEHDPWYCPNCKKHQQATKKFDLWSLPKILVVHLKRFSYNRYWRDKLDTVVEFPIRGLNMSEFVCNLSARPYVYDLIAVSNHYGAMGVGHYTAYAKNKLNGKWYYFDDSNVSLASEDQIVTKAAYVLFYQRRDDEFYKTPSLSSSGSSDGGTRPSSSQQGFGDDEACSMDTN

[6] = biological target: Ubiquitin carboxyl-terminal hydrolase 21 (Homo sapiens, UniProt Q9UK80); test: Inhibition of human GST-tagged USP21 CD (196 to 565 residues) expressed in Escherichia coli assessed as cleavage of Ubiquitin-Rhodamine110-glycine to Ubiquitin and Rhodamine110-glycine using Ubiquitin-Rhodamine110-glycine as substrate by fluorescence based analysis
Sequence of Ubiquitin carboxyl-terminal hydrolase 21 (Q9UK80 whole entry, the tested form may be a part): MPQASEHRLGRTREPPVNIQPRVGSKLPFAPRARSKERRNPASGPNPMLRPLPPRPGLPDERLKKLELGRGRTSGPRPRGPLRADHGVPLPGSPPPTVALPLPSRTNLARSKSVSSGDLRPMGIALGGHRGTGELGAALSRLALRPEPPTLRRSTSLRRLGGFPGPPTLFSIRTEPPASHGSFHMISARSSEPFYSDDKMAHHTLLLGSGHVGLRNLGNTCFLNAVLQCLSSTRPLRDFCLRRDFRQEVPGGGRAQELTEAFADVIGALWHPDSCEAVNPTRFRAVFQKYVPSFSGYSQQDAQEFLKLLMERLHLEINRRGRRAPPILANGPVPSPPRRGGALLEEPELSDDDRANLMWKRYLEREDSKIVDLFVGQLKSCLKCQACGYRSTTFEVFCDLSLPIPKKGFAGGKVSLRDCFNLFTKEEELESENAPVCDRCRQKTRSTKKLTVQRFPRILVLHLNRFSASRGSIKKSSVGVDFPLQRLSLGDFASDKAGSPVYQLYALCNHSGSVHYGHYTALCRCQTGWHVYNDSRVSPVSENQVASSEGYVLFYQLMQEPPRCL

[7] = biological target: Ubiquitin carboxyl-terminal hydrolase 28 (Homo sapiens, UniProt Q96RU2); test: Inhibition of human GST-tagged USP28 expressed in Escherichia coli assessed as cleavage of Ubiquitin-Rhodamine110-glycine to Ubiquitin and Rhodamine110-glycine using Ubiquitin-Rhodamine110-glycine as substrate by fluorescence based analysis
[8] = biological target: Ubiquitin carboxyl-terminal hydrolase 30 (Homo sapiens, UniProt Q70CQ3); test: Inhibition of human USP30 CD (57 to 517 residues) expressed in Escherichia coli assessed as cleavage of Ubiquitin-Rhodamine110-glycine to Ubiquitin and Rhodamine110-glycine using Ubiquitin-Rhodamine110-glycine as substrate by fluorescence based analysis
Sequence of Ubiquitin carboxyl-terminal hydrolase 30 (Q70CQ3 whole entry, the tested form may be a part): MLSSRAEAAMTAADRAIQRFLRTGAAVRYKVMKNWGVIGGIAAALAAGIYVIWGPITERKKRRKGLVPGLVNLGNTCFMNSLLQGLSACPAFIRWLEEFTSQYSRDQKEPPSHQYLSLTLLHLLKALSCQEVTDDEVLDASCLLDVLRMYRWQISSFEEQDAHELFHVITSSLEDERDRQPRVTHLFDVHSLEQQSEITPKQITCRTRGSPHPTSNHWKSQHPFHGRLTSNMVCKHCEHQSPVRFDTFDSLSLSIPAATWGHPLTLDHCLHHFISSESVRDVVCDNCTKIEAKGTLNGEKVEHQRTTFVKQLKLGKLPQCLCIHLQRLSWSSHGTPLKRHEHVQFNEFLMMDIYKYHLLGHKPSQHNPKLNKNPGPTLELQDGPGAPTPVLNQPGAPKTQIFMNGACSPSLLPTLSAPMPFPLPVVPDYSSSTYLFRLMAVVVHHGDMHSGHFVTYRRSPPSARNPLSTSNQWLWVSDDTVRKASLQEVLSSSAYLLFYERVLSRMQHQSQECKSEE

[9] = biological target: Ubiquitin carboxyl-terminal hydrolase 35 (Homo sapiens, UniProt Q9P2H5); test: Inhibition of USP35 (unknown origin)
[10] = biological target: Ubiquitin carboxyl-terminal hydrolase CYLD (Homo sapiens, UniProt Q9NQC7); test: Inhibition of human 6His-tagged CYLD expressed in baculovirus infected Sf21 insect cells assessed as cleavage of Ubiquitin-Rhodamine110-glycine to Ubiquitin and Rhodamine110-glycine using Ubiquitin-Rhodamine110-glycine as substrate by fluorescence based analysis
Sequence of Ubiquitin carboxyl-terminal hydrolase CYLD (Q9NQC7 whole entry): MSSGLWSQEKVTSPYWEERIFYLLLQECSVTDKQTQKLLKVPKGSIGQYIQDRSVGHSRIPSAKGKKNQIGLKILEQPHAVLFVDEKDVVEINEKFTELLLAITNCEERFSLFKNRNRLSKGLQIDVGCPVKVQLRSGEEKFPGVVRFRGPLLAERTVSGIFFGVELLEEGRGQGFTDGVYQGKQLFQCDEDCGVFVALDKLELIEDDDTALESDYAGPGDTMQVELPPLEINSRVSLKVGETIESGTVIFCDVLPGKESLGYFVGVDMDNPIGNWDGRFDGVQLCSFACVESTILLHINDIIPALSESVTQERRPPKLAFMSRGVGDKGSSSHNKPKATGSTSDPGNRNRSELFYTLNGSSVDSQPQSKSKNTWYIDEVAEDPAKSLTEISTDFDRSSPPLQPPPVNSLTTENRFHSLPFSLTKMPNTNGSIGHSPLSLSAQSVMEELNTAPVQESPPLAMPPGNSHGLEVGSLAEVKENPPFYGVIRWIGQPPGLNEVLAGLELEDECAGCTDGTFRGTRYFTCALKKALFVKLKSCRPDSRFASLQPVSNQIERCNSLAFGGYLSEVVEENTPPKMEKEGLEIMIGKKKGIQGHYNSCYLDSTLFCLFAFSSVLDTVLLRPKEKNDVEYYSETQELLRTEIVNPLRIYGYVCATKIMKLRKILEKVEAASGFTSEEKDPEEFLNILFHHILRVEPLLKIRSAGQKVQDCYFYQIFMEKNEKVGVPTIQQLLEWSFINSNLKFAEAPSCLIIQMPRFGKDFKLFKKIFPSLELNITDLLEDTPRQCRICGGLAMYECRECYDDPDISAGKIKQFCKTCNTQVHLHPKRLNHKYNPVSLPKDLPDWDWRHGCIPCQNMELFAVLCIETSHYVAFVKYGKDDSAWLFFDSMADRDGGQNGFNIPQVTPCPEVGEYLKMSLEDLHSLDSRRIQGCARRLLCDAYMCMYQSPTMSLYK

[11] = biological target: Ubiquitin thioesterase OTU1 (Homo sapiens, UniProt Q5VVQ6); test: Inhibition of human GST-tagged OTU1 expressed in Escherichia coli assessed as cleavage of Ubiquitin-Rhodamine110-glycine to Ubiquitin and Rhodamine110-glycine using Ubiquitin-Rhodamine110-glycine as substrate by fluorescence based analysis
[12] = biological target: Ubiquitin thioesterase OTUB2 (Homo sapiens, UniProt Q96DC9); test: Inhibition of human GST-tagged OTUB2 expressed in Escherichia coli assessed as cleavage of Ubiquitin-Rhodamine110-glycine to Ubiquitin and Rhodamine110-glycine using Ubiquitin-Rhodamine110-glycine as substrate by fluorescence based analysis
Sequence of Ubiquitin thioesterase OTUB2 (Q96DC9 whole entry, the tested form may be a part): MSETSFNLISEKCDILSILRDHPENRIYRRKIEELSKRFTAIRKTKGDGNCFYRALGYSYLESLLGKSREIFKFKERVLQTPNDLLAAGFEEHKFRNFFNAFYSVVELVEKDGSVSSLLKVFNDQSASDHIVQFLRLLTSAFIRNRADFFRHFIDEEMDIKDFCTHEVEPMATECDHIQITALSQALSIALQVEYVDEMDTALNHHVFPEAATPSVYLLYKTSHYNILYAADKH

[13] = biological target: OTU domain-containing protein 1 (Homo sapiens, UniProt Q5VV17); test: Inhibition of human 6His-tagged OTUD1 CD (270 to 481 residues) expressed in Escherichia coli assessed as cleavage of Ubiquitin-Rhodamine110-glycine to Ubiquitin and Rhodamine110-glycine using Ubiquitin-Rhodamine110-glycine as substrate by fluorescence based analysis
Sequence of OTU domain-containing protein 1 (Q5VV17 whole entry, the tested form may be a part): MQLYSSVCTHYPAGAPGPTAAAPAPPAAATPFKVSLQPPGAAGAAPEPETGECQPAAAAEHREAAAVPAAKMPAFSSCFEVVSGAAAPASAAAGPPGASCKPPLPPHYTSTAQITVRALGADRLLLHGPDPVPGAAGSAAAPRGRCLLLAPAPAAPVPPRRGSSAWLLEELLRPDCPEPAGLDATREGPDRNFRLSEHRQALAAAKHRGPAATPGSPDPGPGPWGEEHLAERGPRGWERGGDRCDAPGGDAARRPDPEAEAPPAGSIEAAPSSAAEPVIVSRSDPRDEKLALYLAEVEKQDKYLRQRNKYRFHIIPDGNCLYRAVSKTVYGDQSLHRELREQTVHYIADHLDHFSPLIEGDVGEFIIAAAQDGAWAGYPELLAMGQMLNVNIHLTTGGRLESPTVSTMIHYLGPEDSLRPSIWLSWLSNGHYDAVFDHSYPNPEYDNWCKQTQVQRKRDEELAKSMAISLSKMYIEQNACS

Deubiquitinase OTUD6B = Deubiquitinase OTUD6B (Homo sapiens, UniProt Q8N6M0); test: Inhibition of human GST-tagged OTUD6B expressed in Escherichia coli assessed as cleavage of Ubiquitin-Rhodamine110-glycine to Ubiquitin and Rhodamine110-glycine using Ubiquitin-Rhodamine110-glycine as substrate by fluorescence based analysis
Sequence of Deubiquitinase OTUD6B (Q8N6M0 whole entry, the tested form may be a part): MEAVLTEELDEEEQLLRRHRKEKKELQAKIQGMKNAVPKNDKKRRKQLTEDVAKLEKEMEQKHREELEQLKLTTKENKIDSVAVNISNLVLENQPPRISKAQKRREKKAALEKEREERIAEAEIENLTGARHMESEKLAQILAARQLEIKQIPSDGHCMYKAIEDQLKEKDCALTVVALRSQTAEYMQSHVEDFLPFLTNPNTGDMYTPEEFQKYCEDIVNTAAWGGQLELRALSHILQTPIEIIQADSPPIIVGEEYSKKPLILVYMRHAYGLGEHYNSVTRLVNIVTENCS

AMSH-like protease = AMSH-like protease (Homo sapiens, UniProt Q96FJ0); test: Inhibition of human GST-tagged AMSH-LP CD (264 to 436 residues) expressed in Escherichia coli assessed as cleavage of Ubiquitin-Rhodamine110-glycine to Ubiquitin and Rhodamine110-glycine using Ubiquitin-Rhodamine110-glycine as substrate by fluorescence based analysis
Sequence of AMSH-like protease (Q96FJ0 whole entry, the tested form may be a part): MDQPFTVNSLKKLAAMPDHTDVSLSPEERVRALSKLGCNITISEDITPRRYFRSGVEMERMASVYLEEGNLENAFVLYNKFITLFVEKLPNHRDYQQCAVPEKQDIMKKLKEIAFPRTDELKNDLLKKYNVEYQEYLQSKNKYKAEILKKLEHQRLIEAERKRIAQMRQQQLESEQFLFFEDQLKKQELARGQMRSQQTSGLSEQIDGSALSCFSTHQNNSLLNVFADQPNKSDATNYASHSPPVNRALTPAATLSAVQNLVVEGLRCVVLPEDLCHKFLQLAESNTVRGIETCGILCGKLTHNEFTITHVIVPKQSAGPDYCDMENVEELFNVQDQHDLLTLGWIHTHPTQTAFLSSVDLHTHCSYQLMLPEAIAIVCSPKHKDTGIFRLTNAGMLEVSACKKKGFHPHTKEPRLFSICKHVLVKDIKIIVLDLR

Ataxin-3 = Ataxin-3 (Homo sapiens, UniProt P54252); test: Inhibition of human GST-tagged Ataxin-3 expressed in Escherichia coli assessed as cleavage of Ubiquitin-Rhodamine110-glycine to Ubiquitin and Rhodamine110-glycine using Ubiquitin-Rhodamine110-glycine as substrate by fluorescence based analysis
Sequence of Ataxin-3 (P54252 whole entry): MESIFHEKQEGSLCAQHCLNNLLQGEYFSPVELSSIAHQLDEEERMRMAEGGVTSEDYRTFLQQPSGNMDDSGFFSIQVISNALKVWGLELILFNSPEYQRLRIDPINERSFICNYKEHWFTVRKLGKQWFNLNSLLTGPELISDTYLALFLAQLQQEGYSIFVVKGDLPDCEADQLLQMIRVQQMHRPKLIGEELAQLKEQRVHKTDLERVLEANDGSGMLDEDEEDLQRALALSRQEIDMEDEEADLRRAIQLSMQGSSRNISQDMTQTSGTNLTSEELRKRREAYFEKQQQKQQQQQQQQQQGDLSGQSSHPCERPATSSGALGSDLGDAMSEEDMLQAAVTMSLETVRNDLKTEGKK

Josephin-1 = Josephin-1 (Homo sapiens, UniProt Q15040); test: Inhibition of human His6-tagged JOSD1 expressed in Escherichia coli assessed as cleavage of Ubiquitin-Rhodamine110-glycine to Ubiquitin and Rhodamine110-glycine using Ubiquitin-Rhodamine110-glycine as substrate by fluorescence based analysis

IC50 [1]: > 10 µM
clearance [2]: 1.83 mL/min/kg
AUC [3]: 4700 ng·h/mL
IC50 [4]: > 10 µM
IC50 [5]: > 10 µM
IC50 [6]: > 10 µM
IC50 [7]: > 10 µM
IC50 [8]: > 10 µM
IC50 [9]: > 10 µM
IC50 [10]: > 10 µM
IC50 [11]: > 10 µM
IC50 [12]: > 10 µM
IC50 [13]: > 10 µM
IC50 (Deubiquitinase OTUD6B): > 10 µM
IC50 (AMSH-like protease): > 10 µM
IC50 (Josephin-1): > 10 µM
SMILES: Cc1cc(Cl)cc(-c2ccnc3cc(CN4C(=O)C5C(C4=O)C5(C)C)sc23)c1O[C@@H]1CCNC[C@@H]1C (some centres not stated)
IC50 (Ataxin-3): > 10 µM
